The values that follow come from ChEMBL document CHEMBL1158004, “New alkaloids from the indopacific sponge Stylissa carteri” (J Nat Prod, 1999).

The term IC50 denotes the point on the concentration scale where inhibition reaches its midpoint.

The experiment can be described thus: Cytotoxicity against human MONO-MAC 6 cells assessed as [3H]thymidine incorporation after 48 hrs. It counts as functional, cell-based. In general terms: Uptake of a labelled nucleoside into DNA is a usual measure of proliferation.

Structures are written as SMILES. Converted amounts (≈) assume the structure as drawn.

In the case of `NC1=N/C(=C2/CCNC(=O)c3[nH]ccc32)C(=O)N1` [DEBROMOHYMENIALDISINE], the IC50 is 2.4 µg/mL (≈ 9.79 µM).

`NC1=NC(=O)/C(=C2\CCNC(=O)c3[nH]c(Br)cc32)N1` [HYMENIALDISINE]: the IC50 was 0.2 µg/mL (≈ 0.617 µM).
